In PubChem BioAssay (NCI):
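Test compounds were applied to cells in 96-well plates for 48 hours at 5 doses. TGI denotes the concentration required for complete inhibition of growth.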

How the values were obtained:
Assay in all cases: NCI-60 cell line screen, 48 h
MDA-MB-231 breast = tested on: MDA-MB-231 breast
A549 NSCLC = tested on: A549 NSCLC
MDA-MB-435 = tested on: MDA-MB-435
OVCAR-4 ovarian = tested on: OVCAR-4 ovarian
M14 melanoma = tested on: M14 melanoma
CAKI-1 renal = tested on: CAKI-1 renal
OVCAR-8 ovarian = tested on: OVCAR-8 ovarian
SK-MEL-2 melanoma = tested on: SK-MEL-2 melanoma
NCI-H460 lung = tested on: NCI-H460 lung
HOP-62 NSCLC = tested on: HOP-62 NSCLC
A498 renal = tested on: A498 renal
UACC-257 melanoma = tested on: UACC-257 melanoma
MOLT-4 leukemia = tested on: MOLT-4 leukemia
EKVX NSCLC = tested on: EKVX NSCLC
HCT-116 colon = tested on: HCT-116 colon
HS 578T breast = tested on: HS 578T breast
OVCAR-3 ovarian = tested on: OVCAR-3 ovarian
LOX IMVI melanoma = tested on: LOX IMVI melanoma
SNB-19 CNS = tested on: SNB-19 CNS
KM12 colon = tested on: KM12 colon
SN12C renal = tested on: SN12C renal
TK-10 renal = tested on: TK-10 renal
T-47D breast = tested on: T-47D breast
SK-MEL-5 melanoma = tested on: SK-MEL-5 melanoma
SF-539 CNS = tested on: SF-539 CNS
UO-31 renal = tested on: UO-31 renal
BT-549 breast = tested on: BT-549 breast
DU-145 prostate = tested on: DU-145 prostate
IGROV1 ovarian = tested on: IGROV1 ovarian
COLO 205 colon = tested on: COLO 205 colon
SW-620 colon = tested on: SW-620 colon
U251 CNS = tested on: U251 CNS
MDA-N = tested on: MDA-N
HCT-15 colon = tested on: HCT-15 colon
SK-MEL-28 melanoma = tested on: SK-MEL-28 melanoma
NCI-H23 lung = tested on: NCI-H23 lung
HOP-92 NSCLC = tested on: HOP-92 NSCLC
SNB-75 CNS = tested on: SNB-75 CNS
MCF7 breast = tested on: MCF7 breast
SF-268 CNS = tested on: SF-268 CNS
SF-295 CNS = tested on: SF-295 CNS
RPMI-8226 leukemia = tested on: RPMI-8226 leukemia
786-0 renal = tested on: 786-0 renal
OVCAR-5 ovarian = tested on: OVCAR-5 ovarian
CCRF-CEM leukemia = tested on: CCRF-CEM leukemia
RXF 393 renal = tested on: RXF 393 renal
SR leukemia = tested on: SR leukemia
NCI-H226 lung = tested on: NCI-H226 lung
UACC-62 melanoma = tested on: UACC-62 melanoma
HT29 colon = tested on: HT29 colon
PC-3 prostate = tested on: PC-3 prostate
NCI/ADR-RES ovarian = tested on: NCI/ADR-RES ovarian
HCC-2998 colon = tested on: HCC-2998 colon
K-562 leukemia = tested on: K-562 leukemia
HL-60(TB) leukemia = tested on: HL-60(TB) leukemia
NCI-H522 lung = tested on: NCI-H522 lung
ACHN renal = tested on: ACHN renal
SK-OV-3 ovarian = tested on: SK-OV-3 ovarian

COC1=CC(=O)c2c(c(-c3csc(C)n3)cn2C)C1=O
TGI (MDA-MB-231 breast): > 86.6 µM | TGI (A549 NSCLC): > 41.6 µM | TGI (MDA-MB-435): 26.8 µM | TGI (OVCAR-4 ovarian): > 100 µM | TGI (M14 melanoma): > 100 µM | TGI (CAKI-1 renal): > 73.5 µM | TGI (OVCAR-8 ovarian): > 94.8 µM | TGI (SK-MEL-2 melanoma): > 63.8 µM | TGI (NCI-H460 lung): 19.9 µM | TGI (HOP-62 NSCLC): > 68.4 µM | TGI (A498 renal): 72.6 µM | TGI (UACC-257 melanoma): 32.6 µM | TGI (MOLT-4 leukemia): > 100 µM | TGI (EKVX NSCLC): 77.9 µM | TGI (HCT-116 colon): > 77.5 µM | TGI (HS 578T breast): > 100 µM | TGI (OVCAR-3 ovarian): 36.4 µM | TGI (LOX IMVI melanoma): > 100 µM | TGI (SNB-19 CNS): > 81.2 µM | TGI (KM12 colon): > 100 µM | TGI (SN12C renal): > 68.9 µM | TGI (TK-10 renal): > 100 µM | TGI (T-47D breast): > 64.3 µM | TGI (SK-MEL-5 melanoma): 4.97 µM | TGI (SF-539 CNS): 54.7 µM | TGI (UO-31 renal): > 73.4 µM | TGI (BT-549 breast): > 100 µM | TGI (DU-145 prostate): > 45.9 µM | TGI (IGROV1 ovarian): 72.2 µM | TGI (COLO 205 colon): > 71.1 µM | TGI (SW-620 colon): > 100 µM | TGI (U251 CNS): > 100 µM | TGI (MDA-N): 35.1 µM | TGI (HCT-15 colon): > 52.5 µM | TGI (SK-MEL-28 melanoma): > 100 µM | TGI (NCI-H23 lung): 15 µM | TGI (HOP-92 NSCLC): > 100 µM | TGI (SNB-75 CNS): 19 µM | TGI (MCF7 breast): > 69.5 µM | TGI (SF-268 CNS): > 100 µM | TGI (SF-295 CNS): > 67.1 µM | TGI (RPMI-8226 leukemia): > 19.8 µM | TGI (786-0 renal): > 76.7 µM | TGI (OVCAR-5 ovarian): > 95 µM | TGI (CCRF-CEM leukemia): > 94.4 µM | TGI (RXF 393 renal): 43.3 µM | TGI (SR leukemia): > 100 µM | TGI (NCI-H226 lung): > 100 µM | TGI (UACC-62 melanoma): 42.5 µM | TGI (HT29 colon): 91.6 µM | TGI (PC-3 prostate): > 68.6 µM | TGI (NCI/ADR-RES ovarian): > 79.1 µM | TGI (HCC-2998 colon): > 100 µM | TGI (K-562 leukemia): > 100 µM | TGI (HL-60(TB) leukemia): 23.9 µM | TGI (NCI-H522 lung): 91.4 µM | TGI (ACHN renal): > 71.9 µM | TGI (SK-OV-3 ovarian): > 100 µM

CC(=O)N(C)C(C(=O)N1CC(C)CC1C(=O)N(C)C1C(=O)NC(CC(C)C)C(=O)N2CC(C)CC2C(=O)NC(CC(C)C)C(=O)N(C)C(C(C)C)C(=O)N2CCCC2C(=O)N(C)C(CC(C)C)C(=O)NCC(=O)OC1C)C(C)C (stereo unspecified)
TGI (MDA-MB-231 breast): > 100 µM | TGI (A549 NSCLC): > 100 µM | TGI (MDA-MB-435): > 100 µM | TGI (OVCAR-4 ovarian): > 100 µM | TGI (M14 melanoma): > 100 µM | TGI (CAKI-1 renal): > 100 µM | TGI (OVCAR-8 ovarian): > 100 µM | TGI (SK-MEL-2 melanoma): > 100 µM | TGI (NCI-H460 lung): > 100 µM | TGI (HOP-62 NSCLC): > 100 µM | TGI (A498 renal): > 100 µM | TGI (UACC-257 melanoma): > 100 µM | TGI (MOLT-4 leukemia): > 100 µM | TGI (EKVX NSCLC): > 100 µM | TGI (HCT-116 colon): > 100 µM | TGI (HS 578T breast): > 100 µM | TGI (OVCAR-3 ovarian): > 100 µM | TGI (LOX IMVI melanoma): > 100 µM | TGI (SNB-19 CNS): > 100 µM | TGI (KM12 colon): > 100 µM | TGI (SN12C renal): > 100 µM | TGI (TK-10 renal): > 100 µM | TGI (T-47D breast): > 100 µM | TGI (SK-MEL-5 melanoma): > 100 µM | TGI (SF-539 CNS): > 100 µM | TGI (UO-31 renal): > 100 µM | TGI (BT-549 breast): > 100 µM | TGI (DU-145 prostate): > 100 µM | TGI (IGROV1 ovarian): > 100 µM | TGI (COLO 205 colon): > 100 µM | TGI (SW-620 colon): > 100 µM | TGI (U251 CNS): > 100 µM | TGI (MDA-N): > 100 µM | TGI (HCT-15 colon): > 100 µM | TGI (SK-MEL-28 melanoma): > 100 µM | TGI (NCI-H23 lung): > 100 µM | TGI (HOP-92 NSCLC): > 100 µM | TGI (SNB-75 CNS): > 100 µM | TGI (MCF7 breast): > 100 µM | TGI (SF-268 CNS): > 100 µM | TGI (SF-295 CNS): > 100 µM | TGI (RPMI-8226 leukemia): > 100 µM | TGI (786-0 renal): > 100 µM | TGI (OVCAR-5 ovarian): > 100 µM | TGI (CCRF-CEM leukemia): > 100 µM | TGI (RXF 393 renal): > 100 µM | TGI (SR leukemia): > 100 µM | TGI (NCI-H226 lung): > 100 µM | TGI (UACC-62 melanoma): > 100 µM | TGI (HT29 colon): > 100 µM | TGI (PC-3 prostate): > 100 µM | TGI (NCI/ADR-RES ovarian): > 100 µM | TGI (HCC-2998 colon): > 100 µM | TGI (K-562 leukemia): > 100 µM | TGI (HL-60(TB) leukemia): > 100 µM | TGI (NCI-H522 lung): > 100 µM | TGI (ACHN renal): > 100 µM | TGI (SK-OV-3 ovarian): > 100 µM
